Experimental findings from US20260184691A1, “INHIBITORS AND DEGRADERS OF PIP4K PROTEIN” (Larkspur Biosciences, Inc., priority 2022, published 2026) are described below.

A value given as a limit tells only on which side of the number the result lay.

The assay has as its target T1, endogenous PIP4K2C C-terminally tagged with HiBiT peptide in MOLT-4 cells (Homo sapiens, UniProt Q8TBX8).
T1 construct: to C-terminally tag endogenous PIP4K2C with HiBiT peptide; host or cells: MOLT-4 (CRISPR-Cas9 knock-in clone)
T1 sequence (Q8TBX8 1-421): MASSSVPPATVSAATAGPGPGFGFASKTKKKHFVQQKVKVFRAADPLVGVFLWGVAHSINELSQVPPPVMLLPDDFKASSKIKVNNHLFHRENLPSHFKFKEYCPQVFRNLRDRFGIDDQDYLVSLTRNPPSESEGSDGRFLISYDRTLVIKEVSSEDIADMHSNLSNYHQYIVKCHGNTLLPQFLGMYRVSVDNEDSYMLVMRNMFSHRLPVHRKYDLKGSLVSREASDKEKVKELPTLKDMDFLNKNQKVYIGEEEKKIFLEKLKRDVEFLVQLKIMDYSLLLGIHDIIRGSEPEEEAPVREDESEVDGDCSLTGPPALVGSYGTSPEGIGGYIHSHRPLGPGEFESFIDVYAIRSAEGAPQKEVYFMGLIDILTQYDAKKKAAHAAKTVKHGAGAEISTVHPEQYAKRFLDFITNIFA
Nature of the assay: HiBiT PIP4K2C degradation assay in MOLT-4 cells. It counts as cell-based. The following applies: 24 hours, 10-point dose response, top concentration 10 micromolar, read-out: HiBIT-degradation MOLT4 PIP4k2C 24 hours DC50. As to the method: Following clonal selection, genotype was confirmed by Sanger sequencing. […] Nano-Glo® HiBiT Lytic Assay System was purchased from Promega (Madison, WI, Catalog number N3030). Cell culture flasks and 384-well microplates were purchased from Corning (Glendale, AZ).
To study PIP4K2C degradation, 384-well plates were plated with a 10-point dose response curve, 3-fold dilution, in duplicate with a top starting concentration of 10 micromolar. Subsequently 22,500 cells were added to each well and incubated at 37C in 5% CO2 for 24 hours. At the end of the incubation time, cells were treated with the Nano-Glo® HiBiT Lytic Detection System following the manufacturer's instructions. Luminescence was measured with a PHERAstar FSX plate reader (BMG Labtech, Cary, NC). The Levenberg-Marquardt algorithm was used to fit a Hill equation to dose-response data to calculate DC50 values (see Table 6).
On the technique in general: With HiBiT, luminescence reflects the tagged protein that the partner subunit can reach.
A word on the DC50: it is the concentration giving 50% degradation. Regarding `O=C(COc1cccc2c1C(=O)N(C1CCC(=O)NC1=O)C2=O)NCCCCCCCC(=O)N1CCC2(CC1)CCN(c1cncc(Nc3ncc(Cl)c(-c4cccc(-c5ccccc5)c4)n3)c1)C2=O` (stereo not drawn) [Compound 77, N-(8-(2-(5-((4-([1,1′-biphenyl]-3-yl)-5-chloropyrimidin-2-yl)amino)pyridin-3-yl)-1-oxo-2,8-diazaspiro[4.5]decan-8-yl)-8-oxooctyl)-2-((2-(2,6-dioxopiperidin-3-yl)-1,3-dioxoisoindolin-4-yl)oxy)acetamide], the DC50 was less than 500 nM.

For the compound `O=C1CCC(N2C(=O)c3cccc(OCCCCCCCCC(=O)N4CCC5(CC4)CCN(c4cncc(Nc6ncc(Cl)c(-c7cccc(-c8ccccc8)c7)n6)c4)C5=O)c3C2=O)C(=O)N1` (stereo not drawn) [Compound 78, 4-((9-(2-(5-((4-([1,1′-biphenyl]-3-yl)-5-chloropyrimidin-2-yl)amino)pyridin-3-yl)-1-oxo-2,8-diazaspiro[4.5]decan-8-yl)-9-oxononyl)oxy)-2-(2,6-dioxopiperidin-3-yl)isoindoline-1,3-dione], the DC50 lay in the range of 500 to 1000 nM.

Regarding `O=C1CCC(N2C(=O)c3cccc(OCCCCCCCC(=O)N4CCC5(CC4)CCN(c4cncc(Nc6ncc(Cl)c(-c7cccc(-c8ccccc8)c7)n6)c4)C5=O)c3C2=O)C(=O)N1` (stereo not drawn) [Compound 79, 4-((8-(2-(5-((4-([1,1′-biphenyl]-3-yl)-5-chloropyrimidin-2-yl)amino)pyridin-3-yl)-1-oxo-2,8-diazaspiro[4.5]decan-8-yl)-8-oxooctyl)oxy)-2-(2,6-dioxopiperidin-3-yl)isoindoline-1,3-dione], the DC50 is less than 500 nM.

As for `O=C1CCC(N2C(=O)c3cccc(OCCCCCCC(=O)N4CCC5(CC4)CCN(c4cncc(Nc6ncc(Cl)c(-c7cccc(-c8ccccc8)c7)n6)c4)C5=O)c3C2=O)C(=O)N1` (stereo not drawn) [Compound 80, 4-((7-(2-(5-((4-([1,1′-biphenyl]-3-yl)-5-chloropyrimidin-2-yl)amino)pyridin-3-yl)-1-oxo-2,8-diazaspiro[4.5]decan-8-yl)-7-oxoheptyl)oxy)-2-(2,6-dioxopiperidin-3-yl)isoindoline-1,3-dione], the DC50 is less than 500 nM.

In the case of `O=C(CCCOc1cccc2c1C(=O)N(C1CCC(=O)NC1=O)C2=O)NCCCCCCCC(=O)Nc1cncc(Nc2ncc(Cl)c(-c3cccc(-c4ccccc4)c3)n2)c1` (stereo not drawn) [Compound 81, N-(5-((4-([1,1′-biphenyl]-3-yl)-5-chloropyrimidin-2-yl)amino)pyridin-3-yl)-8-(4-((2-(2,6-dioxopiperidin-3-yl)-1,3-dioxoisoindolin-4-yl)oxy)butanamido)octanamide], the DC50 is less than 500 nM.

Take `O=C1CCC(N2Cc3cc(NCCCCCC(=O)N4CCC5(CC4)CCN(c4cncc(Nc6ncc(Cl)c(-c7cccc(-c8ccccc8)c7)n6)c4)C5=O)ccc3C2=O)C(=O)N1` (stereo not drawn) [Compound 82, 3-(5-((6-(2-(5-((4-([1,1′-biphenyl]-3-yl)-5-chloropyrimidin-2-yl)amino)pyridin-3-yl)-1-oxo-2,8-diazaspiro[4.5]decan-8-yl)-6-oxohexyl)amino)-1-oxoisoindolin-2-yl)piperidine-2,6-dione]: the DC50 is less than 500 nM.

For `O=C(CCCCCOc1cccc2c1C(=O)N(C1CCC(=O)NC1=O)C2=O)NCCCCCC(=O)Nc1cncc(Nc2ncc(Cl)c(-c3cccc(-c4ccccc4)c3)n2)c1` (stereo not drawn) [Compound 83, N-(5-((4-([1,1′-biphenyl]-3-yl)-5-chloropyrimidin-2-yl)amino)pyridin-3-yl)-6-(6-((2-(2,6-dioxopiperidin-3-yl)-1,3-dioxoisoindolin-4-yl)oxy)hexanamido)hexanamide], the DC50 is 1000 to 5000 nM.

As to `O=C1CCC(N2Cc3cc(NCCCCC(=O)N4CCC5(CC4)CCN(c4cncc(Nc6ncc(Cl)c(-c7cccc(-c8ccccc8)c7)n6)c4)C5=O)ccc3C2=O)C(=O)N1` (stereo not drawn) [Compound 84, 3-(5-((5-(2-(5-((4-([1,1′-biphenyl]-3-yl)-5-chloropyrimidin-2-yl)amino)pyridin-3-yl)-1-oxo-2,8-diazaspiro[4.5]decan-8-yl)-5-oxopentyl)amino)-1-oxoisoindolin-2-yl)piperidine-2,6-dione], the DC50 was less than 500 nM.

In the case of `O=C(COc1cccc2c1C(=O)N(C1CCC(=O)NC1=O)C2=O)NCCCCCCCCCC(=O)Nc1cncc(Nc2ncc(Cl)c(-c3cccc(-c4ccccc4)c3)n2)c1` (stereo not drawn) [Compound 85, N-(5-((4-([1,1′-biphenyl]-3-yl)-5-chloropyrimidin-2-yl)amino)pyridin-3-yl)-10-(2-((2-(2,6-dioxopiperidin-3-yl)-1,3-dioxoisoindolin-4-yl)oxy)acetamido)decanamide], the DC50 was 500 to 1000 nM.

For the compound `O=C(COc1cccc2c1C(=O)N(C1CCC(=O)NC1=O)C2=O)NCCCCCCCC(=O)Nc1cncc(Nc2ncc(Cl)c(-c3cccc(-c4ccccc4)c3)n2)c1` (stereo not drawn) [Compound 86, N-(5-((4-([1,1′-biphenyl]-3-yl)-5-chloropyrimidin-2-yl)amino)pyridin-3-yl)-8-(2-((2-(2,6-dioxopiperidin-3-yl)-1,3-dioxoisoindolin-4-yl)oxy)acetamido)octanamide], the DC50 is less than 500 nM.

As for `O=C1CCC(N2Cc3cc(OCCCCC(=O)N4CCC5(CC4)CCN(c4cncc(Nc6ncc(Cl)c(-c7cccc(-c8ccccc8)c7)n6)c4)C5=O)ccc3C2=O)C(=O)N1` (stereo not drawn) [Compound 87, 3-(5-((5-(2-(5-((4-([1,1′-biphenyl]-3-yl)-5-chloropyrimidin-2-yl)amino)pyridin-3-yl)-1-oxo-2,8-diazaspiro[4.5]decan-8-yl)-5-oxopentyl)oxy)-1-oxoisoindolin-2-yl)piperidine-2,6-dione], the DC50 was less than 500 nM.

In the case of `O=C1CCC(N2Cc3cc(OCCCCCC(=O)N4CCC5(CC4)CCN(c4cncc(Nc6ncc(Cl)c(-c7cccc(-c8ccccc8)c7)n6)c4)C5=O)ccc3C2=O)C(=O)N1` (stereo not drawn) [Compound 88, 3-(5-((6-(2-(5-((4-([1,1′-biphenyl]-3-yl)-5-chloropyrimidin-2-yl)amino)pyridin-3-yl)-1-oxo-2,8-diazaspiro[4.5]decan-8-yl)-6-oxohexyl)oxy)-1-oxoisoindolin-2-yl)piperidine-2,6-dione], the DC50 is less than 500 nM.

Regarding `O=C(CCOc1cccc2c1C(=O)N(C1CCC(=O)NC1=O)C2=O)NCCCCCCCCC(=O)Nc1cncc(Nc2ncc(Cl)c(-c3cccc(-c4ccccc4)c3)n2)c1` (stereo not drawn) [Compound 89, N-(5-((4-([1,1′-biphenyl]-3-yl)-5-chloropyrimidin-2-yl)amino)pyridin-3-yl)-9-(3-((2-(2,6-dioxopiperidin-3-yl)-1,3-dioxoisoindolin-4-yl)oxy)propanamido)nonanamide], the DC50 is less than 500 nM.

Consider `O=C1CCC(Nc2ccc(N3CCC(N4CCC5(CCN(c6cncc(Nc7ncc(Cl)c(N8CCCCC8)n7)c6)C5=O)CC4)CC3)cc2)C(=O)N1` (stereo not drawn) [Compound 91, 3-((4-(4-(2-(5-((5-chloro-4-(piperidin-1-yl)pyrimidin-2-yl)amino)pyridin-3-yl)-1-oxo-2,8-diazaspiro[4.5]decan-8-yl)piperidin-1-yl)phenyl)amino)piperidine-2,6-dione], for which the DC50 lay within 1000 to 5000 nM.

`O=C1CCC(N2Cc3cc(OCCCCCCC(=O)N4CCC5(CC4)CC(=O)N(c4cncc(Nc6ncc(Cl)c(-c7cccc(-c8ccccc8)c7)n6)c4)C5)ccc3C2=O)C(=O)N1` (stereo not drawn) [Compound 166, 3-(5-((7-(2-(5-((4-([1,1′-biphenyl]-3-yl)-5-chloropyrimidin-2-yl)amino)pyridin-3-yl)-3-oxo-2,8-diazaspiro[4.5]decan-8-yl)-7-oxoheptyl)oxy)-1-oxoisoindolin-2-yl)piperidine-2,6-dione]: the DC50 is less than 500 nM.
